{"source": "patent US5536853A", "about": "“Opiate receptor ligands” (Chiron Corporation, priority 1994, dated 1996)", "target": "T1, μ-specific opiate receptor (Rattus norvegicus, UniProt P33535)", "T1 construct": "Rat forebrains were homogenized and washed; from tissue; host or cells: rat forebrain membranes", "T1 sequence (P33535 whole entry)": "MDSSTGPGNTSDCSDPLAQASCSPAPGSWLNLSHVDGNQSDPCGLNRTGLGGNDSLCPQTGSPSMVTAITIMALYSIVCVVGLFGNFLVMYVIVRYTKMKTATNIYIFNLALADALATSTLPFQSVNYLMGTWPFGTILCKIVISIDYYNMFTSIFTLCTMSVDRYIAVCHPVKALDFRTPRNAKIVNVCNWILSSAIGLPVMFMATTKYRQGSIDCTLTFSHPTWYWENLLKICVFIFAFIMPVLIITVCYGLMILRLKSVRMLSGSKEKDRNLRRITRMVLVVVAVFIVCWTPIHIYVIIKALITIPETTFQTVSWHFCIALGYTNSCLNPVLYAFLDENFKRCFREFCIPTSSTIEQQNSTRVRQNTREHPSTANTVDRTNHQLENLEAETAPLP", "experiment": "in vitro solution-phase radioligand competition assay ([3H]-DAMGO, rat forebrain membranes)", "type": "binding", "conditions": "1 nM [3H]-DAMGO, pH 7.5, 1 hr room temperature; for inhibition at 0.1 µM: at 100 nM", "protocol": "Compounds were screened in vitro using the following assay:\nHigh-affinity ligands for the μ-specific opiate receptor were identified from a diverse peptoid library by testing the pools of compounds in solution-phase radioligand competition assays, and tracing the binding activity to individual compounds by iterative resynthesis and screening of smaller sub-pools.\nRat forebrains were homogenized and washed in 50 mM Tris, pH 7.5 containing 20 mM NaCl, 5 mM EGTA, 2 mM MgCl2, 21 μg/mL aprotinin, 0.5 mg/L leupeptin, 0.7 mg/L pepstatin, 0.2 Mm PMSF. 50 μL of membrane (10 mg/mL protein) were dispensed into 1 mL of 50 mM Tris, pH 7.5, 1 nM [^3 H]-DAMGO and the peptoid mixture. All assays were performed at 100 nM per peptoid.\nNonspecific binding was determined as [^3 H]-DAMGO bound in the presence of 1 μM naloxone. Incubation was for 1 hr at room temperature. Unbound radioactivity was removed by rinsing the membranes on Whatman GF/B glass fiber filters. Each filter was washed 3 times with 3 mL of 50 mM Tris, pH 7.5, 4° C. Filters were soaked overnight in 5 mL of Beckman ReadySafe scintillation cocktail and then counted for one minute in a Wallac 1409 liquid scintillation counter. Assays were performed in duplicate."}
{"molecule": "COc1ccc(CN(CC(=O)N(CCc2ccc(O)cc2)CC(N)=O)C(=O)CNCC(c2ccccc2)c2ccccc2)cc1OC", "note": "[CHIR-4537, Nbhm-Nddb-Nhtyr]", "values": [{"measurement": "Ki", "value": 0.045, "unit": "µM"}]}
{"molecule": "NC(=O)CN(CCc1ccc(O)cc1)C(=O)CN(Cc1ccc2c(c1)OCO2)C(=O)C=CCNCC(c1ccccc1)c1ccccc1", "note": "[CHIR 5045, Nvbhm-Nmdb-Nhtyr]", "values": [{"measurement": "inhibition at 0.1 µM", "value": 58, "unit": "%"}]}
{"molecule": "CC(NCC(c1ccccc1)c1ccccc1)C(=O)N(CC(=O)N(CCc1ccc(O)cc1)CC(N)=O)Cc1ccc2c(c1)OCO2", "note": "(stereo not shown) [CHIR 5052, Nbha-Nmdb-Nhtyr]", "values": [{"measurement": "inhibition at 0.1 µM", "value": 73, "unit": "%"}]}
{"molecule": "CCCCCN(CC(=O)N(CCc1ccc(O)cc1)CC(N)=O)C(=O)CNCC(c1ccccc1)c1ccccc1", "note": "[CHIR-4534, Nbhm-Npen-Nhtyr]", "values": [{"measurement": "Ki", "value": 0.03, "unit": "µM"}]}
{"molecule": "COc1cc(CN(CC(=O)N(CCc2ccc(O)cc2)CC(N)=O)C(=O)CNCC(c2ccccc2)c2ccccc2)cc(OC)c1OC", "note": "[CHIR 4626, Nbhm-Ntrnb-Nhtyr]", "values": [{"measurement": "inhibition at 0.1 µM", "value": 86, "unit": "%"}]}
{"molecule": "NC(=O)CN(CCc1ccc(O)cc1)C(=O)CN(Cc1ccc2c(c1)OCO2)C(=O)CNCCC(c1ccccc1)c1ccccc1", "note": "[CHIR 4622, Nbhe-Nmdb-Nhtyr]", "values": [{"measurement": "inhibition at 0.1 µM", "value": 78, "unit": "%"}]}
{"molecule": "NC(=O)CN(CCc1ccccc1)C(=O)CN(Cc1ccccc1)C(=O)CNCC(c1ccccc1)c1ccccc1", "note": "[CHIR 4628, Nbhm-Nphe-Nhphe]", "values": [{"measurement": "inhibition at 0.1 µM", "value": 77, "unit": "%"}]}
{"molecule": "NC(=O)CN(CCc1ccc(O)cc1)C(=O)CN(Cc1ccc2c(c1)OCO2)C(=O)CNCC=C(c1ccccc1)c1ccccc1", "note": "[CHIR 5062, Nbvp-Nmdb-Nhtyr]", "values": [{"measurement": "inhibition at 0.1 µM", "value": 65, "unit": "%"}]}
{"molecule": "NC(=O)CN(CCc1ccc(O)cc1)C(=O)CN(Cc1ccc2c(c1)OCO2)C(=O)CNCC(c1ccccc1)c1ccccc1", "note": "[CHIR-4531, Nbhm-Nmdb-Nhtyr]", "values": [{"measurement": "Ki", "value": 0.007, "unit": "µM"}]}
{"molecule": "NC(=O)CN(CCc1ccc(O)cc1)C(=O)CN(Cc1ccccc1)C(=O)CNCC(c1ccccc1)c1ccccc1", "note": "[CHIR 4627, Nbhm-Nphe-Nhtyr]", "values": [{"measurement": "inhibition at 0.1 µM", "value": 90, "unit": "%"}]}
